Laboratory results published in patent US5652100A, “Stably transfected rodent fibroblast cell lines expressing human GABA-A -receptors” (priority 1992, dated 1997).
Read-outs that look alike come from different tables or passages of the source.

Target: T1, recombinant GABAA receptor (α1 β1 γ2L) expressed by population A cells (Bos taurus, UniProt P08219+P08220+P22300)
T1 construct: expressed in transfected cells; clone 'population A'
T1 sequence (P08219 28-456): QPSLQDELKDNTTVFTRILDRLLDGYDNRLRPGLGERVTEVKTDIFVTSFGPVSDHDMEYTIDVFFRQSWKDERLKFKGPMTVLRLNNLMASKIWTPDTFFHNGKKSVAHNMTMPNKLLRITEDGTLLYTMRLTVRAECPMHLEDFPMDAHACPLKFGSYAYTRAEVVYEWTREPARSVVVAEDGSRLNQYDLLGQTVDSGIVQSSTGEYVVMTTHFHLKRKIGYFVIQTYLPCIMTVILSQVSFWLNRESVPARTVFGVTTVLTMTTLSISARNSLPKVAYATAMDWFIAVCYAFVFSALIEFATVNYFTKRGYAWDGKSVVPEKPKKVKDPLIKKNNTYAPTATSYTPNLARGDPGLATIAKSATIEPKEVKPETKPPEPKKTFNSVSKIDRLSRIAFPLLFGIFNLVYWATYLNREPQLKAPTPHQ
T1 sequence (P08220 26-474): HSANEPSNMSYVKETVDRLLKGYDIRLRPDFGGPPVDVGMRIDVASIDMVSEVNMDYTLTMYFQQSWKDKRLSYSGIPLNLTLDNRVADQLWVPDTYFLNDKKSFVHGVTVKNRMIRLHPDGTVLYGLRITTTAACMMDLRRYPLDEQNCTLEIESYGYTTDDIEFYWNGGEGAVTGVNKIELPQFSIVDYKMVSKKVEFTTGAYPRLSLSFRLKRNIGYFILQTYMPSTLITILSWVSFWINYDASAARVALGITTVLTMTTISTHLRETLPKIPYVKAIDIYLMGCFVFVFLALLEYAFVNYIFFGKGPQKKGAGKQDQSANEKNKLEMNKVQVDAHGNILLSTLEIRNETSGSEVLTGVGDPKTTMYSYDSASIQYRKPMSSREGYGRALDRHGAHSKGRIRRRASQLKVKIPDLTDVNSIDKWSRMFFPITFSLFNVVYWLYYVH
T1 sequence (P22300 40-475): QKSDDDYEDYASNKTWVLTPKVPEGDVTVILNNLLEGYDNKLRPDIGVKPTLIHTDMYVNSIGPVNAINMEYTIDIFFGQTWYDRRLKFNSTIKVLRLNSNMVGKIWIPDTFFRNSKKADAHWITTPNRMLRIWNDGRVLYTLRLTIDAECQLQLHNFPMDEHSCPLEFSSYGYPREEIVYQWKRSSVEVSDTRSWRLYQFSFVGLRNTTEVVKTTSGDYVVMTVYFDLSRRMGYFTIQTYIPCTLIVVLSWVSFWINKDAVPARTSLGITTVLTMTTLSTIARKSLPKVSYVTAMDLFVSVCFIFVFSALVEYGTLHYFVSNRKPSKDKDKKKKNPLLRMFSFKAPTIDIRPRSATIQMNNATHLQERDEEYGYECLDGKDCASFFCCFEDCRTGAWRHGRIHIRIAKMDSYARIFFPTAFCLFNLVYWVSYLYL
Assay type: cell-based, bovine
Source text: The nature of the GABAA receptor expressed by population A cells has been extensively characterised by electrophysiological techniques, using whole cell patch clamp.

[1] = whole cell patch clamp, qualitative

| Compound | potentiation of the response to GABA [1] | antagonism of the response to GABA [1] | also measured |
| --- | --- | --- | --- |
| Cc1nnc2ccc(-c3cccc(C(F)(F)F)c3)nn12 [CL218872] | – | – | potentiation of the response to GABA: potentiated |
| NCCCC(=O)O [GABA, Gamma-amino butyric acid] | – | – | Hill coefficient of GABA concentration response curves (dexamethasone-induced cells, whole cell patch clamp): 1.9 |
| CC(=O)[C@H]1CC[C@H]2[C@@H]3CC[C@H]4C[C@H](O)CC[C@]4(C)[C@H]3C(=O)C[C@]12C [alphaxalone] | potentiated | – | – |
| CN1CCc2cc3c(cc2[C@H]1[C@@H]1OC(=O)c2c1ccc1c2OCO1)OCO3 [bicuculline] | – | antagonised | – |
| CCCC(C)C1(CC)C(=O)NC(=O)NC1=O (stereo not drawn) [pentobarbitone] | potentiated | – | – |
| picrotoxin | – | antagonised | – |
